Reference: patent US20150291598A1 (NOVARTIS AG, priority 2012, published 2015)

Tested on: P. falciparum (NF54 or 3D7 strain)
Assay: Assay for P. falciparum proliferation in infected human blood cells (SYBR Green)
Format: cell-based, Plasmodium falciparum
Conditions: Plasmodium falciparum, Erythrocyte, 72 h, NF54 or 3D7 infected human erythrocytes, 72 hours; read-out: EC50 (nM), inhibitory efficacy in delaying P. falciparum proliferation in infected human blood cells
Procedure, shortened: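 NF54 or 3D7 parasites in O+ human erythrocytes at 2.5% hematocrit and 0.3% parasitemia final, exposed to compounds 72 h at 37 °C under 93% N2/4% CO2/3% O2.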

Row | Compound | EC50
1 | CN(C(=O)c1cn2c(-c3ccc(OC(F)F)cc3)cnc2cn1)c1ccc(C#N)cn1 [Compound 85, N-(5-cyanopyridin-2-yl)-3-[4-(difluoromethoxy)phenyl]-N-methylimidazo[1,2-a]pyrazine-6-carboxamide] | 1100 nM
2 | CN(C(=O)c1cn2c(-c3ccc(C(F)(F)F)c(F)c3)cnc2cn1)c1ccc(C#N)cc1 [Compound 169, N-(4-cyanophenyl)-3-[3-fluoro-4-(trifluoromethyl)phenyl]-N-methylimidazo[1,2-a]pyrazine-6-carbox] | 497 nM
3 | Cc1ccc(-c2cnc3cnc(C(=O)N(C)c4ccc(C#N)cc4)cn23)cc1 [Compound 113, N-(4-cyanophenyl)-N-methyl-3-(4-methylphenyl)imidazo[1,2-a]pyrazine-6-carboxamide] | 81 nM
4 | CN(C(=O)c1cn2c(-c3ccc(C(F)(F)F)cc3)cnc2cn1)c1ncc(Cl)cn1 [Compound 93, N-(5-chloropyrimidin-2-yl)-N-methyl-3-[4-(trifluoromethyl)phenyl]imidazo[1,2-a]pyrazine-6-carboxamide] | 4640 nM
5 | CN(C(=O)c1cn2c(-c3ccc(S(C)(=O)=O)cc3)cnc2cn1)c1ccc(C#N)cc1 [Compound 129, N-(4-cyanophenyl)-3-(4-methanesulfonylphenyl)-N-methylimidazo[1,2-a]pyrazine-6-carboxamide] | 800 nM
6 | COc1ccc(-c2cnc3cnc(C(=O)N(C)c4ccc(C#N)cc4)cn23)c(F)c1 [Compound 65, N-(4-cyanophenyl)-3-(2-fluoro-4-methoxyphenyl)-N-methylimidazo[1,2-a]pyrazine-6-carboxamide] | 354 nM
7 | CC(=O)c1cnc2cnc(C(=O)N(C)c3ccc(Cl)nc3)cn12 [Compound 33, 3-acetyl-N-(6-chloropyridin-3-yl)-N-methylimidazo[1,2-a]pyrazine-6-carboxamide] | 4710 nM
8 | CN(Cc1cn2c(-c3ccc(Cl)cc3)cnc2cn1)c1ccc(Cl)cc1 [Compound 44, 4-chloro-N-{[3-(4-chlorophenyl)imidazo[1,2-a]pyrazin-6-yl]methyl}-N-methylaniline] | 206 nM
9 | CN(C(=O)c1cn2c(-c3ccc(C(F)(F)F)cc3)cnc2cn1)c1ccc(F)c(Cl)c1 [Compound 32, N-(3-chloro-4-fluorophenyl)-N-methyl-3-[4-(trifluoromethyl)phenyl]imidazo[1,2-a]pyrazine-6-carboxamide] | 135 nM
10 | CN(C)c1ccc(-c2cnc3cnc(CN(C)c4ccc(Cl)cc4)cn23)cc1 [Compound 37, 4-(6-{[(4-chlorophenyl)(methyl)amino]methyl}imidazo[1,2-a]pyrazin-3-yl)-N,N-dimethylaniline] | 640 nM
11 | CN(C(=O)c1cn2c(-c3ccc4nn(C)cc4c3)cnc2cn1)c1ccc(C#N)cc1 [Compound 149, N-(4-cyanophenyl)-N-methyl-3-(2-methyl-2H-indazol-5-yl)imidazo[1,2-a]pyrazine-6-carboxamide] | 1520 nM
12 | CNc1ccc(-c2cnc3cnc(C(=O)N(C)c4ccc(C#N)cc4)cn23)cc1 [Compound 117, N-(4-cyanophenyl)-N-methyl-3-[4-(methylamino)phenyl]imidazo[1,2-a]pyrazine-6-carboxamide] | 92 nM
13 | CN(C(=O)c1cn2c(-c3ccc(OC(F)(F)F)cc3)cnc2cn1)c1ccc(C#N)cc1 [Compound 116, -(4-cyanophenyl)-N-methyl-3-[4-(trifluoromethoxy)phenyl]imidazo[1,2-a]pyrazine-6-carboxamide] | 230 nM
14 | CN(C)c1ccc(-c2cnc3cnc(C(=O)N(C)c4ccc(F)cc4)cn23)cc1 [Compound 121, 3-[4-(dimethylamino)phenyl]-N-(4-fluorophenyl)-N-methylimidazo[1,2-a]pyrazine-6-carboxamide] | 259 nM
15 | CN(C(=O)c1cn2c(-c3ccc(Cl)cc3)cnc2cn1)c1ccc(F)cc1 [Compound 103, 3-(4-chlorophenyl)-N-(4-fluorophenyl)-N-methylimidazo[1,2-a]pyrazine-6-carboxamide] | 51 nM
16 | CN(C(=O)c1cn2c(-c3ccc(C(F)(F)F)cc3)cnc2cn1)c1ncccc1F [Compound 221, N-(3-fluoropyridin-2-yl)-N-methyl-3-[4-(trifluoromethyl)phenyl]imidazo[1,2-a]pyrazine-6-carboxamide] | 4970 nM
17 | CN(C(=O)c1cn2c(-c3ccc(C(F)(F)F)nc3)cnc2cn1)c1ccc(C#N)cc1 [Compound 187, N-(4-cyanophenyl)-N-methyl-3-[6-(trifluoromethyl)pyridin-3-yl]imidazo[1,2-a]pyrazine-6-carboxamide] | 1380 nM
18 | CS(=O)(=O)c1ccc2c(c1)CCN2C(=O)c1cn2c(-c3ccc(C(F)(F)F)cc3)cnc2cn1 [Compound 7, 5-methanesulfonyl-1-({3-[4-(trifluoromethyl)phenyl]imidazo[1,2-a]pyrazin-6-yl}carbonyl)-2,3-dihydro-1H-indole] | > 10000 nM
19 | CN(Cc1cn2c(-c3ccc4c(cnn4C)c3)cnc2cn1)c1ccc(F)cc1 [Compound 8, 4-fluoro-N-methyl-N-((3-(1-methyl-1H-indazol-5-yl)imidazo[1,2-a]pyrazin-6-yl)methyl)aniline] | 21 nM

The next lines start with the values.

Row | EC50 | Compound
20 | 6140 nM | CN(C(=O)c1cn2c(-c3ccc(C(F)(F)F)cc3)cnc2cn1)c1ccc(-n2cncn2)nc1 [Compound 365, N-methyl-N-[6-(1H-1,2,4-triazol-1-yl)pyridin-3-yl]-3-[4-(trifluoromethyl)phenyl]imidazo[1,2-a]pyrazine-6-carboxamide]
21 | 318 nM | CN(C(=O)c1cn2c(-c3ccc(C(F)F)cc3)cnc2cn1)c1ccc(Cl)nc1 [Compound 265, N-(6-chloropyridin-3-yl)-3-[4-(difluoromethyl)phenyl]-N-methylimidazo[1,2-a]pyrazine-6-carboxamide]
22 | 1160 nM | CN(C)CCNC(=O)c1ccc(-c2cnc3cnc(C(=O)N(C)c4ccc(C#N)cc4)cn23)cc1 [Compound 291, N-(4-cyanophenyl)-3-(4-{[2-(dimethylamino)ethyl]carbamoyl}phenyl)-N-methylimidazo[1,2-a]pyrazine-6-carboxamide]
23 | 31 nM | CN(C(=O)c1cn2c(-c3ccc(OC(F)F)cc3)cnc2cn1)c1ccc(F)cc1 [Compound 433, 3-[4-(difluoromethoxy)phenyl]-N-(4-fluorophenyl)-N-methylimidazo[1,2-a]pyrazine-6-carboxamide]
24 | 176 nM | CN(C)c1ccc(-c2cnc3cnc(CN(C)c4ccc(C#N)cc4)cn23)cc1 [Compound 437, 4-[({3-[4-(dimethylamino)phenyl]imidazo[1,2-a]pyrazin-6-yl}methyl)(methyl)amino]benzonitrile]
25 | 762 nM | CN(C)Cc1ccc(-c2cnc3cnc(C(=O)N(C)c4ccc(Cl)nc4)cn23)cc1 [Compound 388, N-(6-chloropyridin-3-yl)-3-{4-[(dimethylamino)methyl]phenyl}-N-methylimidazo[1,2-a]pyrazine-6-carboxamide]
26 | 2910 nM | CN(C(=O)c1cn2c(-c3cnc4c(cnn4C)c3)cnc2cn1)c1ccc(C#N)cc1 [Compound 391, N-(4-cyanophenyl)-N-methyl-3-{1-methyl-1H-pyrazolo[3,4-b]pyridin-5-yl}imidazo[1,2-a]pyrazine-6-carboxamide]
27 | 2780 nM | COc1ccc(C(=O)N(C)c2cn3c(-c4ccc(C(F)(F)F)cc4)cnc3cn2)cc1 [Compound 311, 4-methoxy-N-methyl-N-{3-[4-(trifluoromethyl)phenyl]imidazo[1,2-a]pyrazin-6-yl}benzamide]
28 | 3140 nM | CN(C(=O)c1cn2c(-c3cc4ccccc4[nH]3)cnc2cn1)c1ccc(-c2cc3ccccc3[nH]2)nc1 [Compound 319, 3-(1H-indol-2-yl)-N-[6-(1H-indol-2-yl)pyridin-3-yl]-N-methylimidazo[1,2-a]pyrazine-6-carboxamide]
29 | 1950 nM | O=C1CCCCN1Cc1cn2c(-c3ccc(C(F)(F)F)cc3)cnc2cn1 [Compound 426, 1-({3-[4-(trifluoromethyl)phenyl]imidazo[1,2-a]pyrazin-6-yl}methyl)piperidin-2-one]
30 | 1020 nM | CC(=O)c1ccc(N(C)C(=O)c2cn3c(-c4ccc(C(F)(F)F)cc4)cnc3cn2)cc1 [Compound 425, N-(4-acetylphenyl)-N-methyl-3-[4-(trifluoromethyl)phenyl]imidazo[1,2-a]pyrazine-6-carboxamide]
31 | 454 nM | CC(=O)Nc1ccc(-c2cnc3cnc(C(=O)N(C)c4ccc(Cl)nc4)cn23)cc1 [Compound 279, N-(6-chloropyridin-3-yl)-3-(4-acetamidophenyl)-N-methylimidazo[1,2-a]pyrazine-6-carboxamide]
32 | 1290 nM | Cc1ccc(-c2cnc3cnc(C(=O)N(C)c4ccc(C#N)cc4)cn23)cn1 [Compound 297, N-(4-cyanophenyl)-N-methyl-3-(6-methylpyridin-3-yl)imidazo[1,2-a]pyrazine-6-carboxamide]
33 | 6070 nM | CN(C(=O)c1cn2c(-c3ncccc3Cl)cnc2cn1)c1ccc(C#N)cc1 [Compound 354, 3-(3-chloropyridin-2-yl)-N-(4-cyanophenyl)-N-methylimidazo[1,2-a]pyrazine-6-carboxamide]
34 | > 10000 nM | COC(=O)Nc1ccc(-c2cnc3cnc(C(=O)N(C)c4ccc(C)cn4)cn23)cn1 [Compound 415, methyl N-(5-{6-[methyl(5-methylpyridin-2-yl)carbamoyl]imidazo[1,2-a]pyrazin-3-yl}pyridin-2-yl)carbamate]
35 | 377 nM | COc1ncccc1N(C)C(=O)c1cn2c(-c3ccc(C(F)(F)F)cc3)cnc2cn1 [Compound 492, N-(2-methoxypyridin-3-yl)-N-methyl-3-[4-(trifluoromethyl)phenyl]imidazo[1,2-a]pyrazine-6-carboxamide]
36 | 277 nM | CN(C(=O)c1ccc(Cl)cn1)c1cn2c(-c3ccc(C(F)(F)F)cc3)cnc2cn1 [Compound 264, 5-chloro-N-methyl-N-{3-[4-(trifluoromethyl)phenyl]imidazo[1,2-a]pyrazin-6-yl}pyridine-2-carboxamide]
37 | 1500 nM | Cc1ccc(C(=O)N(C)c2cn3c(-c4ccc(C(F)(F)F)cc4)cnc3cn2)cc1 [Compound 289, N,4-dimethyl-N-{3-[4-(trifluoromethyl)phenyl]imidazo[1,2-a]pyrazin-6-yl}benzamide]
